Experimental data as given in patent EP4413976B1, “A NEW VAMOROLONE PREPARATION EXHIBITING IMPROVED SOLUBILITY” (Santhera Pharmaceuticals (Schweiz) AG, priority 2023, dated 2024).
Values after ≈ are worked out from the molar mass of the structure shown.

How the values were obtained:
[1] = kinetic solubility in FaSSIF (Pion µDissolution monitor); format: physicochemical; settings: thermodynamic from solid, FaSSIF pH 6.5, 37° C
Protocol: SDD prototypes were evaluated for kinetic solubility in FaSSIF (Fasted State Simulated Intestinal Fluid, pH = 6.5) using the Pion µDissolution monitor with a tip path length of 2 mm. Data were collected using AUPro software over a period of 18 hours in 20 mL of each media, heated to 37 ± 2 °C. A stir speed of 250 rpm for the duration of the experiment.

[2] = solubility in aqueous solution at 37°C; format: physicochemical
[3] = solvent solubility screening of micronized Vamorolone (visual, solvent added in aliquots); format: physicochemical; settings: for 200 µl / +100 µl: 10 mg Vamorolone; for 200 µl: dissolved after 200 µl; for +100 µl: dissolved after further 100 µl
Protocol: The solubility of micronized Vamorolone was assessed in several typical organic solvent systems suitable for use in spray drying.
A quantity of 10 mg of Vamorolone was dispensed into a 2 mL HPLC vial. The experimental design was to add the test solvent in aliquots, 200 µl and 100 µl. After each aliquot addition the sample was to be mixed on a vortex mixer for 1 minute and solubility assessed visually. Observations were also made after one hour of solvent addition.

inflammatory states = settings: multiple mouse models of inflammatory states, background statement; cited from earlier work
glucocorticoid receptor = target: T1, glucocorticoid receptor (Homo sapiens, UniProt P04150); settings: pre-clinical data, background statement; cited from earlier work
T1 sequence (P04150 1-777): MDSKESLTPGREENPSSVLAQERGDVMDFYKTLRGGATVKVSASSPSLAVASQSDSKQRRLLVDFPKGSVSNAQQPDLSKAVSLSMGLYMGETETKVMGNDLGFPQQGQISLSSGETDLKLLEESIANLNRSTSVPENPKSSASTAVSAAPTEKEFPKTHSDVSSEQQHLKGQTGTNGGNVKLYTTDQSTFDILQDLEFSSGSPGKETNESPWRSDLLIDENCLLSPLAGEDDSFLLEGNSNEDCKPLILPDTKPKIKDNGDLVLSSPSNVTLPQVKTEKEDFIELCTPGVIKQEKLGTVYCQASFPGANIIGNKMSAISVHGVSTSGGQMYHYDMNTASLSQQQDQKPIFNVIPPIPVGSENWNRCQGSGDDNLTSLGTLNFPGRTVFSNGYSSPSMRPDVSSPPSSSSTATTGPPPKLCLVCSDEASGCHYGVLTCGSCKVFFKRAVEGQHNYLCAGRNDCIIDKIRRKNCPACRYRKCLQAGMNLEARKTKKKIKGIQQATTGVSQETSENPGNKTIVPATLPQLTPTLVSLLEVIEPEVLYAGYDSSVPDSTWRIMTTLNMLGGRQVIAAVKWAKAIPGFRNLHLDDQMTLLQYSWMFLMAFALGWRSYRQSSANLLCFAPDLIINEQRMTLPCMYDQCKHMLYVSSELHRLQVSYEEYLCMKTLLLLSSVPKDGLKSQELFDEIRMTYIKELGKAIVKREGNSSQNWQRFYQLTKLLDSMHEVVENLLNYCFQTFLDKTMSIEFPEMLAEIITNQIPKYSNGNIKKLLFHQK

[4] = storage of cryo-milled amorphous Vamorolone; format: physicochemical; settings: room temperature in a closed container

C[C@@H]1C[C@H]2[C@@H]3CCC4=CC(=O)C=C[C@]4(C)C3=CC[C@]2(C)[C@@]1(O)C(=O)CO [Crystalline API, 17α,21-dihydroxy-16α-methylpregna-1,4,9(11)-triene-3,20-dione]
solubility at 5 min ([1]; T=5 min): 46.4 µg/mL (≈ 130 µM) | solubility at 30 min ([1]; T=30 min): 48.9 µg/mL (≈ 137 µM) | solubility at 1 h ([1]; T=1 hour): 49.2 µg/mL (≈ 138 µM) | solubility at 4 h ([1]; T=4 hour): 49 µg/mL (≈ 137 µM) | solubility at 12 h ([1]; T=12 hour): 48.8 µg/mL (≈ 137 µM) | solubility at 18 h ([1]; T=18 hour): 48.7 µg/mL (≈ 137 µM)

C[C@@H]1C[C@H]2[C@@H]3CCC4=CC(=O)C=C[C@]4(C)C3=CC[C@]2(C)[C@@]1(O)C(=O)CO [Vamorolone, 17α,21-dihydroxy-16α-methylpregna-1,4,9(11)-triene-3,20-dione]
solubility [2]: ~40 µg/mL (≈ 112 µM) | Observation 1 hour after solubility assessment ([3]; Acetone): Hazy | Observation after solubility assessment ([3]; Acetone): Hazy | 200 µl ([3]; Acetone): × | +100 µl ([3]; Acetone): × | Observation 1 hour after solubility assessment ([3]; DCM): Clear | Observation after solubility assessment ([3]; DCM): Clear | clear solution ([3]; DCM (dichloromethane):methanol (1:1)): 50 mg/mL | clear solution ([3]; DCM (dichloromethane):methanol (1:3)): 50 mg/mL | Observation 1 hour after solubility assessment ([3]; DCM:Methanol (1:1)): Clear | Observation after solubility assessment ([3]; DCM:Methanol (1:1)): Clear | 200 µl ([3]; DCM:Methanol (1:1)): ✔ | Observation 1 hour after solubility assessment ([3]; DCM:Methanol (1:3)): Clear | Observation after solubility assessment ([3]; DCM:Methanol (1:3)): Clear | 200 µl ([3]; DCM:Methanol (1:3)): ✔ | 200 µl ([3]; DCM): × | +100 µl ([3]; DCM): ✔ | Observation 1 hour after solubility assessment ([3]; Ethanol): Hazy | Observation after solubility assessment ([3]; Ethanol): Hazy | 200 µl ([3]; Ethanol): × | +100 µl ([3]; Ethanol): × | Observation 1 hour after solubility assessment ([3]; Ethyl Acetate): Hazy | Observation after solubility assessment ([3]; Ethyl Acetate): Hazy | 200 µl ([3]; Ethyl Acetate): × | +100 µl ([3]; Ethyl Acetate): × | Observation 1 hour after solubility assessment ([3]; Isopropanol): Hazy | Observation after solubility assessment ([3]; Isopropanol): Hazy | 200 µl ([3]; Isopropanol): × | +100 µl ([3]; Isopropanol): × | Observation 1 hour after solubility assessment ([3]; Methanol): Clear | Observation after solubility assessment ([3]; Methanol): Clear | 200 µl ([3]; Methanol): × | +100 µl ([3]; Methanol): ✔ | Observation 1 hour after solubility assessment ([3]; Water): Hazy | Observation after solubility assessment ([3]; Water): Hazy | 200 µl ([3]; Water): × | +100 µl ([3]; Water): × | efficacy (inflammatory states): efficacy similar to prednisolone | binding to the glucocorticoid receptor (glucocorticoid receptor): binds potently

C[C@@H]1C[C@H]2[C@@H]3CCC4=CC(=O)C=C[C@]4(C)C3=CC[C@]2(C)[C@@]1(O)C(=O)CO [amorphous Vamorolone, 17α,21-dihydroxy-16α-methylpregna-1,4,9(11)-triene-3,20-dione]
physical stability of the amorphous form [4]: recrystallize within days
